In brackets after ≈: the same amount, converted by molar mass.
Experiments:
[1] = Kinetic solubility in aqueous buffer pH 7.4 by total chemiluminescent nitrogen determination (Analiza); settings: aqueous buffer, pH 7.4, aqueous buffer, kinetic from dmso stock
[2] = test system: BV2 (mouse microglia) cell line; assay: pHrodo-myelin phagocytosis/cell viability high content imaging assay: phagocytosis signal; assay type: cell-based; settings: for 4. Phagocytosis (% control): compound 10 uM, pHrodo-myelin
Outline: (§1)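 Imaging at high content captured pHrodo-myelin uptake about 22 hours after its addition, alongside a viability read-out from the same cells. Three measurements were derived, with intensity increase marking early apoptosis and decrease marking later apoptosis.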

[3] = test system: BV2 (mouse microglia) cell line; assay: pHrodo-myelin phagocytosis/cell viability high content imaging assay: viability (cell count, nuclear area, nuclear intensity); settings: BV2; for 1. Cell count (% control) / 2. Nuclear Area (% Control) / 3. Nuclear DNA Intensity (% control): compound 10 uM, 48 hours treatment
Outline: (§2)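 Viability was read by high-content imaging as cell count per well and nuclear intensity per cell, in murine BV2 and human HMC3 microglial lines. Cells received a single 10 μM compound dose for 48 h, including 20 h with pHrodo-myelin. Duplicate means are expressed as % of untreated control.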

[4] = test system: HMC3 (human microglia) cell line; assay: as above; settings: HMC3; compound 10 uM; 48 hours treatment
Outline: as §2

[5] = test system: HMC3 (human microglia) cell line; assay: pHrodo-myelin phagocytosis/cell viability high content imaging assay: phagocytosis signal; assay type: cell-based; settings: HMC3; compound 10 uM; pHrodo-myelin
Outline: as §1

Row | Compound | solubility kinetic [1] [µM] | 1. Cell count (% control) [3] [% control] | 2. Nuclear Area (% Control) [3] [% Control] | 3. Nuclear DNA Intensity (% control) [3] [% control] | 1. Cell count (% control) [4] [% control] | 2. Nuclear Area (% Control) [4] [% Control] | 3. Nuclear DNA Intensity (% control) [4] [% control] | 4. Phagocytosis (% control) ([2]; BV2) | 4. Phagocytosis (% control) [5] [% control] | also measured
1 | CN(C)CC[C@H](CSc1ccccc1)Nc1ccc(S(=O)(=O)NC(=O)c2ccc(N3CCN(Cc4ccccc4-c4ccc(Cl)cc4)CC3)cc2)cc1[N+](=O)[O-] [ABT-737] | 0.9 (≈ 0.732 µg/mL) |  |  |  |  |  |  |  |  | 
2 | O=C(NC1CC1)C(=O)C(Cc1ccccc1)NC(=O)[C@H]1CCC(=O)N1Cc1ccccc1 (some centres unmarked) [ABT-957 (Alicapistat)] | 176 (≈ 76.5 µg/mL) |  |  |  |  |  |  |  |  | 
3 | CC/C(=C(\c1ccc(O)cc1)c1ccc(OCCN(C)C)cc1)c1ccccc1 [Afimoxifene] | 19.5 (≈ 7.56 µg/mL) |  |  |  |  |  |  |  |  | Stimulation of mouse microglial phagocytosis at 10 μM (>150% control) ([2]; BV2, 10 μM): Y (The compound was found to stimulate phagocytosis (response threshold: >150% control) when murine immortalized microglial cells were dosed at 10 μM (Y: yes))
4 | Cc1cc(NC(=O)Nc2ccccc2)n(-c2ccccc2)n1 [CHEMBL86962 (VU0032230)] | 191 (≈ 55.9 µg/mL) |  |  |  |  |  |  |  |  | 
5 | Cc1ccccc1NC(=O)CN1C(=O)N/C(=C/c2ccccc2OCc2ccc(C(=O)O)cc2)C1=O [CHEMBL1416302] | 26.6 (≈ 12.9 µg/mL) |  |  |  |  |  |  |  |  | Stimulation of mouse microglial phagocytosis at 10 μM (>150% control) ([2]; BV2 cells, 10 μM): Y (The compound was found to stimulate phagocytosis (response threshold: >150% control) when murine immortalized microglial cells were dosed at 10 μM (Y: yes))
6 | Cc1ccc(-n2nc(C(C)(C)C)cc2NC(=O)Nc2ccc(OCCN3CCOCC3)c3ccccc23)cc1 [Doramapimod (BIRB 796)] | 3.6 (≈ 1.9 µg/mL) |  |  |  |  |  |  |  |  | Stimulation of mouse microglial phagocytosis at 10 μM (>150% control) ([2]; 10 μM, BV2): Y (The compound was found to stimulate phagocytosis (response threshold: >150% control) when murine immortalized microglial cells were dosed at 10 μM (Y: yes))
7 | CN1C[C@H](Nc2cnn(C)c(=O)c2Br)C[C@H](c2ccccc2)C1 [GSK4027] | 126 (≈ 47.6 µg/mL) |  |  |  |  |  |  |  |  | 
8 | CC(C)c1ccc(/C=N/NC(=O)c2ccc(O)cc2)cc1 [GSK 4716] | 215 (≈ 60.6 µg/mL) |  |  |  |  |  |  |  |  | 
9 | Cl.O=C(O)Cc1cccc(OCCCN(Cc2cccc(C(F)(F)F)c2Cl)CC(c2ccccc2)c2ccccc2)c1 [GW 3965 HCl] | 4.1 |  |  |  |  |  |  |  |  | 
10 | Cc1cccc(-c2nn3c(c2-c2ccnc4ccc(C(N)=O)cc24)CCC3)n1 [Galunisertib] | 249 (≈ 92.1 µg/mL) |  |  |  |  |  |  |  |  | Stimulation of mouse microglial phagocytosis at 10 μM (>150% control) ([2]; BV2, 10 μM): Y (The compound was found to stimulate phagocytosis (response threshold: >150% control) when murine immortalized microglial cells were dosed at 10 μM (Y: yes))
11 | CC(C)(O)c1coc(S(=O)(=O)NC(=O)Nc2c3c(cc4c2CCC4)CCC3)c1 [MCC950] | 119 (≈ 48.2 µg/mL) |  |  |  |  |  |  |  |  | 
12 | O=c1[nH]c(=O)n([C@H]2C[C@H](O)[C@@H](CO)O2)cc1/C=C/Br [RP101 (Brivudine)] | 199 (≈ 66.2 µg/mL) |  |  |  |  |  |  |  |  | 
13 | COCCOCCOC(=O)N[C@@H](CC(C)C)C(=O)N[C@@H](Cc1ccccc1)C(=O)C(=O)NC1CC1 [SNJ-1945] | 150 (≈ 73.9 µg/mL) |  |  |  |  |  |  |  |  | 
14 | CCOC(=O)N1CCC(Nc2c(NCCN3CCN(c4cccc(C(F)(F)F)c4)CC3)c(=O)c2=O)CC1 [Squarunkin A] | 0.7 (≈ 0.366 µg/mL) |  |  |  |  |  |  |  |  | 
15 | CCN1CCN(Cc2ccc(NC(=O)c3ccc(C)c(NC(=O)c4cncc(-c5cccs5)c4)c3)cc2C(F)(F)F)CC1 [UNC10303158A] |  | 10.2 | 124.4 | 45.5 | 36.9 | 59.1 | 194.1 | 0.0043 | 0.0256 | 
16 | C=Cc1c(C)c2cc3nc(cc4[nH]c(cc5nc(cc1[nH]2)C(C)=C5CCC(=O)O)c(CCC(=O)OC)c4C)[C@@]1(C)C3=CC=C(C(=O)OC)[C@H]1C(=O)OC [UNC10303159A] |  | 114.7 | 121.1 | 113.2 | 113.8 | 131.2 | 126.0 | 174.1 | 5.8 | 
17 | Cc1ccc(S(=O)(=O)O)cc1.Nc1n[nH]cc1-c1cc(Cl)ccc1Oc1cc(F)c(S(=O)(=O)Nc2cscn2)cc1Cl [UNC10303160A] |  | 121.5 | 103.1 | 99.3 | 135.7 | 95.0 | 100.7 | 124.9 | 74.7 | 
18 | Cl.N=C(CCl)NCCC[C@H](NC(=O)c1ccccc1)C(N)=O [UNC10303161A] |  | 107.1 | 104.4 | 99.5 | 164.2 | 99.9 | 88.6 | 134.6 | 67.2 | 
19 | COc1ccc(CCCN2CCC(COC(c3ccccc3)c3ccccc3)CC2)cc1 [UNC10303165A] |  | 87.4 | 108.5 | 107.0 | 110.9 | 113.8 | 93.8 | 176.2 | 43.5 | 
20 | N[C@@H](CC(=O)Nc1ccc(Oc2cc(F)c(F)cc2Br)cc1)C(=O)O [UNC10303167A] |  | 64.5 | 104.8 | 103.7 | 105.9 | 102.5 | 96.0 | 179.3 | 85.8 | 
21 | Cc1cc(C)nc(NS(=O)(=O)c2ccc(NC(=O)NC(=O)c3ccc(Cl)cc3Cl)cc2)n1 [UNC10303168A] |  | 124.0 | 99.5 | 104.3 | 129.3 | 101.5 | 94.7 | 118.2 | 88.1 | 
22 | NC(=O)[C@@H]1CC[C@H](c2ccc(OCc3ccccc3F)cc2)N1 [UNC10303186A] |  | 138.2 | 103.3 | 100.1 | 128.0 | 102.6 | 95.0 | 194.5 | 105.3 | 
23 | CC(=O)O[C@@H]1[C@@H](OC(C)=O)[C@@H](O)[C@H](Oc2c(-c3ccc(O)cc3)oc3cc(O)cc(O)c3c2=O)O[C@H]1C [UNC10303187A] |  | 146.1 | 103.4 | 101.7 | 122.3 | 105.1 | 90.5 | 142.1 | 67.9 | 
24 | CC(=O)c1nc([C@@H](O)[C@H](O)[C@H](O)CO)c[nH]1 [UNC10303188A] |  | 136.1 | 102.5 | 102.7 | 133.0 | 98.0 | 87.6 | 181.8 | 91.3 | 
25 | COCC(=O)O[C@]1(CCN(C)CCCc2nc3ccccc3[nH]2)CCc2cc(F)ccc2[C@@H]1C(C)C.Cl.Cl [UNC10303193A] |  | 0.0 | 78.1 | 3.8 | 77.7 | 77.5 | 143.7 | 0.0 | 9.6 | 
26 | O=C1C=C(NCCc2cc(Br)c(O)c(Br)c2)C(=O)c2ncccc21 [UNC10303225A] |  | 8.3 | 122.7 | 97.1 | 62.3 | 83.0 | 132.4 | 163.7 | 54.3 | 
27 | Cc1cnc(Nc2ccc(F)cc2Cl)nc1-c1c[nH]c(C(=O)N[C@H](CO)c2cccc(Cl)c2)c1 [Vertex 11e] | 1.4 (≈ 0.701 µg/mL) |  |  |  |  |  |  |  |  | 
28 | CCn1c(=O)/c(=C2\Sc3ccccc3N2C)s/c1=C\c1ccccn1 [YM-08] | 4.6 (≈ 1.69 µg/mL) |  |  |  |  |  |  |  |  | 
29 | COc1cc(C(=O)NS(=O)(=O)c2ccccc2C)ccc1Cc1cn(C)c2ccc(NC(=O)OC3CCCC3)cc12 [Zafirlukast] | 129 (≈ 74.4 µg/mL) |  |  |  |  |  |  |  |  | 
30 | O=c1oc2ccccc2cc1-c1cn2cc(Cc3ccc(F)cc3)sc2n1 [iMDK] | < 1.1 |  |  |  |  |  |  |  |  | Mouse microglial cytotoxicity at 10 μM (<70% control) ([3]; 10 μM): Y (The compound was found to be cytotoxic (cell count threshold: <70% control) when murine immortalized microglial cells were dosed at 10 μM (Y: yes))

From paper PMC9019904, “AD Informer Set: Chemical tools to facilitate Alzheimer's disease drug discovery” (Alzheimer's & Dementia : Translational Research & Clinical …, 2022)
